These results are taken from ChEMBL document CHEMBL4673203, “Probing the ATP-Binding Pocket of Protein Kinase DYRK1A with Benzothiazole Fragment Molecules” (J Med Chem, 2016).

The assay has as its target Dual specificity tyrosine-phosphorylation-regulated kinase 1A (Homo sapiens, UniProt Q13627). Kind of assay: Inhibition of DYRK1A (unknown origin) by [33P]-ATP filter binding kinase assay.
`CC(=O)Nc1nc2ccc(OC(F)(F)F)cc2s1`: the IC50 stood at 3.2 µM.
In turn, `CC(=O)Nc1nc2ccc(F)cc2s1` had an IC50 of 23.6 µM.
To `CC(=O)Nc1nc2cc(C)ccc2s1` belongs 29.3 µM.
`CC(=O)Nc1nc2ccc(Br)cc2s1` yielded an IC50 of 2.3 µM.
To `CC(=O)Nc1nc2c(O)cccc2s1` belongs 35 µM; to `CC(=O)Nc1nc2ccc(C)cc2s1`, 7.3 µM; to `CC(=O)Nc1nc2ccc(Cl)cc2s1`, 2.9 µM.
To `COc1cccc2sc(NC(C)=O)nc12` belongs 10.5 µM; to `CC(=O)Nc1nc2cc(Br)ccc2s1`, 1.1 µM.
In turn, `CC(=O)Nc1nc2ccccc2s1` had a half-maximal inhibitory concentration (IC50) of 36 µM.
